Experimental data as given in patent US7098204B2 (C.N.R.S., priority 1999, dated 2006).
Converted amounts (≈) assume the structure as drawn. Like-named read-outs stand apart in the source and are kept apart here.

Experiments:
cdk5/p25 = cdk5/p25 (Homo sapiens, UniProt Q00535); test: CDK5/p25 kinase assay; assay type: biochemical; conditions: for IC50: 15 μM ATP, −(x) = no effect at highest concentration x tested
Method: (§1) Kinases activities were assayed in Buffer A or C (unless otherwise stated), at 30° C., at a final ATP concentration of 15 μM. Blank values were subtracted and activities calculated as pmoles of phosphate incorporated for a 10 min. incubation (usually expressed in % of the maximal activity, i.e. without inhibitors). Controls were performed with appropriate dilutions of Me2SO. In some cases phosphorylation of the substrate was assessed by autoradiography after SDS-PAGE. IC50 values were estimated from the dose-response curves. • CDK1/cyclin B was extracted in homogenisation buffer from M phase starfish (Marthasterias glacialis) oocytes and purified by affinity chromatography on p9^CKShs1-Sepharose beads, from which it was eluted by free p9^CKShs1 as described. The kinase activity was assayed in buffer C, with 1 mg histone H1/ml, in the presence of 15 μM [γ-^32P] ATP (3,000 Ci/mmol; 1 mCi/ml) in a final volume of 30 μl. After 10 min. incubation at 30° C., 25 μl aliquots of supernatant were spotted onto 2.5×3 cm pieces of Whatman P81 phosphocellulose paper, and, 20 sec. later, the filters were washed five times (for at least 5 min. each time) in a solution of 10 ml phosphoric acid/liter of water. The wet filters were counted in the presence of 1 ml ACS (Amersham) scintillation fluid. • GSK-3β was either purified from rabbit muscle or expressed in and purified from insect Sf9 cells. It was assayed, following a 1/100 dilution in 1 mg BSA/ml 10 mM DTT, with 5 μl 40 μM GS-1 peptide as a substrate, in buffer A, in the presence of 15 μM [γ-^32P] ATP (3,000 Ci/mmol; 1 mCi/ml) in a final volume of 30 μl. […] Its activity was assayed in buffer C as described for CDK1/cyclin B. • CDK2/cyclin A, CDK2/cyclin E, CDK3/cyclin E, CDK4/cyclin D1, CDK6/cyclin D2, His-tagged erk1 and erk2, protein kinase C isoforms, the catalytic subunit of cAMP-dependent protein kinase, cGMP-dependent protein kinase, Myosin light chain kinase, casein kinases 1 & 2, ASK-γ (a plant homologue of GSK-3), insulin receptor tyrosine kinase domain (CIRK-41), c-raf, MAPKK, c-jun N terminal kinase (obtained from Promega), c-src kinase and v-abl kinase were assayed as described. Electrophoresis and Western Blotting

GSK3-β = molecular target: T1, GSK3-β (UniProt P18266); test: GSK-3β kinase assay (GS-1 peptide); assay type: biochemical, rabbit
T1 construct: GSK-3β was either purified from rabbit muscle or expressed in and purified from insect Sf9 cells [18]
Method: as §1

casein kinase 1 = casein kinase 1 assay; assay type: biochemical; conditions: 15 μM ATP; −(x) = no effect at highest concentration x tested; read-out: IC50 casein kinase 1 (CK 1)
Method: as §1

CDK1/cyclin B = CDK1/cyclin B kinase assay (histone H1); assay type: biochemical, starfish (Marthasterias glacialis); conditions: 15 μM ATP; −(x) = no effect at highest concentration x tested
Method: as §1

brain, SF-295 = test: Human cancer cell line SF-295 proliferation; assay type: cell-based
colon, KM20L2 = test: Human cancer cell line KM20L2 proliferation; assay type: cell-based; conditions: KM-20L2
kidney, A498 = test: Human cancer cell line A498 proliferation; assay type: cell-based
lung, H460 = test: Human cancer cell line H460 proliferation; assay type: cell-based; conditions: NCI-H460
ovary, OVCAR-3 = test: Human cancer cell line OVCAR-3 proliferation; assay type: cell-based
melanoma, SK-MEL-5 = test: Human cancer cell line SK-MEL-5 proliferation; assay type: cell-based
[1] = system: GSK-3β like activity in Sf9 cells; test: Tau (htau23) phosphorylation in Sf9 cells, Western blotting; assay type: cell-based; conditions: 50 μM, 5 hrs, Sf9 cells expressing htau23
P388 cell line = test: Inhibition of cell proliferation, P388; assay type: cell-based
[2] = 15 μM ATP, −(x) = no effect at highest concentration x tested, read-out: IC50 GSK3-β

cdk5/p25, sequence (Q00535 whole entry, species assumed): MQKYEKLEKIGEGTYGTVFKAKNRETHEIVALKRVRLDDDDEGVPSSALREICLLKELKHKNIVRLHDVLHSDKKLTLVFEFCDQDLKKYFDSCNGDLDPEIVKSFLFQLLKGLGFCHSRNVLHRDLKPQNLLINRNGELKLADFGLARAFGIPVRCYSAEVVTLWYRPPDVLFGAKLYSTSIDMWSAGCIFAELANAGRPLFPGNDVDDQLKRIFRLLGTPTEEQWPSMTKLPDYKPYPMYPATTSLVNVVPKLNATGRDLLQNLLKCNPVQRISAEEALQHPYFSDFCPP
cdk5/p25, sequence (Q15078 99-307 partner limits assumed, species assumed): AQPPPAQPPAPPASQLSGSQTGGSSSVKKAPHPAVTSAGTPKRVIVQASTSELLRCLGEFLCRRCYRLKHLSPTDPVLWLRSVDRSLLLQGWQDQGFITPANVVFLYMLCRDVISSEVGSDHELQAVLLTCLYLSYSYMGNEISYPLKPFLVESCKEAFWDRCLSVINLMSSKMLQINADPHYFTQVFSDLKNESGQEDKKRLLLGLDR

Molecule | IC50 (cdk5/p25) [µM] | IC50 (GSK3-β; [2]) [µM] | IC50 (casein kinase 1) [µM] | IC50 (CDK1/cyclin B) [µM] | further results
O=C([O-])c1ccc[n+](CCOC(=O)c2cc(Br)c[nH]2)c1 [agelongine] | > 100 | > 100 | > 100 | > 100 | 
O=C1NC(=O)/C(=C2/CCNC(=O)c3[nH]c(Br)cc32)N1 [axinohydantoin] | 7 | 3 | 4.5 | 4 | 
Nc1ncc(C2c3nc(N)[nH]c3CC(CNC(=O)c3cc(Br)c(Br)[nH]3)C2CNC(=O)c2cc(Br)c(Br)[nH]2)[nH]1 (centres unmarked) [dibromoageliferin] | > 100 | 11 | > 100 | > 100 | 
NC1=N[C@H]2n3c(cc(Br)c3Br)C(=O)N3CCC[C@]23N1 [dibromophakellin, reference compound] |  |  |  |  | IC50 (brain, SF-295): 18.8 µg/mL (≈ 48.3 µM); IC50 (colon, KM20L2): 20.1 µg/mL (≈ 51.7 µM); IC50 (kidney, A498): 17.8 µg/mL (≈ 45.8 µM); IC50 (lung, H460): 22 µg/mL (≈ 56.5 µM); IC50 (ovary, OVCAR-3): 15.7 µg/mL (≈ 40.4 µM); IC50 (melanoma, SK-MEL-5): 17 µg/mL (≈ 43.7 µM)
CN1CC[C@H](c2c(O)cc(O)c3c(=O)cc(-c4ccccc4Cl)oc23)[C@H](O)C1 [flavopiridol, reference compound] |  |  |  |  | AT100 signal (tau phosphorylated at T212 and S214) [1]: disappearance of AT100 signal
Nc1ncc(/C=C/CNC(=O)c2cc(Br)c[nH]2)[nH]1 [hymenidin] | 4 | 12 | > 100 | > 100 | kinase selectivity among CDK1, CDK5, GSK-3β, CK1 (cdk5/p25; in words): selective for CDK5
agelastatin A | > 100 | 12 | > 100 | > 100 | 

Now from value to molecule, other results behind:

IC50 (cdk5/p25) [µM] | IC50 (GSK3-β; [2]) [µM] | IC50 (casein kinase 1) [µM] | IC50 (CDK1/cyclin B) [µM] | Molecule | further results
> 100 |  | > 100 | > 100 | Nc1ncc(/C=C/CNC(=O)c2ccc[nH]2)[nH]1 [clathrodin] | 
> 100 |  | > 100 | > 100 | NC1=N[C@H]2c3c([nH]c(Br)c3Br)C(=O)N3CCC[C@]23N1 [dibromocantharelline] | IC50 (GSK3-β; read-out: IC50 towards GSK-3β): 3 µM
> 100 | > 10 | > 10 | > 10 | O=C1N[C@H]2n3c(cc(Br)c3Br)C(=O)N3CCC[C@]23N1 [dibromophakellstatin] | IC50 (brain, SF-295): 1.5 µg/mL (≈ 3.85 µM); IC50 (colon, KM20L2): 0.11 µg/mL (≈ 0.282 µM); IC50 (kidney, A498): 0.21 µg/mL (≈ 0.538 µM); IC50 (lung, H460): 0.62 µg/mL (≈ 1.59 µM); IC50 (ovary, OVCAR-3): 0.46 µg/mL (≈ 1.18 µM); IC50 (melanoma, SK-MEL-5): 0.11 µg/mL (≈ 0.282 µM)
> 100 | > 100 | > 100 | > 100 | NC1=NC(=O)/C(=C/CCNC(=O)c2cc(Br)c(Br)[nH]2)N1 [dispacamide A] | 
50 | 20 | > 100 | > 100 | Nc1ncc(/C=C/CNC(=O)c2cc(Br)c(Br)[nH]2)[nH]1 [oroïdin] | 
> 100 | > 100 | > 100 | > 100 | Nc1nc([C@H]2[C@H](CNC(=O)c3cc(Br)c[nH]3)[C@@H](CNC(=O)c3cc(Br)c[nH]3)[C@@H]2c2c[nH]c(N)n2)c[nH]1 [sceptrin] | 
> 100 | > 100 | > 100 | 70 | Nc1ncc(C2=CCNC(=O)c3[nH]c(Br)c(Br)c32)[nH]1 [stevensine/odiline] | 
3 | 0.6 | 1.1 | 1.3 | diacetyldebromohymenialdisine | 
1.5 | 0.16 | 0.55 | 0.13 | diacetylhymenialdisine | IC50 on P388 cell line (P388 cell line): 0.56 µg/mL; IC50 (P388 cell line; read-out: IC50 on P388 cell line in μM (parentheses)): 1.7 µM
